In paper PMC5390258, “CMD-05, a novel promising clinical anti-diabetic drug candidate, in vivo and vitro studies” (Scientific Reports, 2017):

Tests used:
[1] = system: model rats (HFD/low-dose STZ, T2DM); assay: Oral glucose tolerance test (OGTT) in HFD/STZ T2DM model rats; type: in vivo, rat; conditions: 3 mg/kg oral, model rats
Description: (§1) To establish model of T2DM, male rats (80–100 g, 9-week-old)[49] were fed high fat diet (HFD) (20% sugar, 10% lard, 10% egg yolk and 60% basal feed) after a week of normal diet. After 4 weeks, rats were injected once with low-dose streptozotocin (Solarbio, China) (STZ, 30 mg/kg i.p) to induce partial insulin deficiency, and then continuously fed HFD for 4 weeks after injection of STZ. Then the model rats were oral administrated drugs for 30 days. The body weights were recorded once a week.
On the 1st day, 19th days and 29th days of treatment, oral glucose tolerance tests for model rats were carried out. […] The blood glucose levels were tested using Johnson one touch Ultra Test Strips on Johnson Performa blood glucose meter.

insulin = assay: Plasma insulin levels in model rats (ELISA); type: in vivo, rat; conditions: 3 mg/kg, fasted and glucose load plasma
Description: as §1
(§2) Oral glucose load, fasted and random blood samples were collected from rats on the 28th days, the 29th days and the last of the treatment of drugs, respectively. Plasma levels of insulin and GLP-1 were measured by ELISA kits (YuanYe, China) according to the manufacturer’s recommendation. The levels of HbA1c, Triglycerides (TG), total cholesterol (TC) and low density lipoprotein cholesterol (LDL-C) in blood samples were measured by commercial assay kits (JianCheng, Nanjing, China) according to the manufacturer’s directions.

HbA1c = HbA1c level in blood of model rats; type: in vivo, rat; conditions: 3 mg/kg, 30 days
Description: as §1, §2

TG, LDL-C = assay: TG and LDL-C plasma levels in model rats; type: in vivo, rat; conditions: 3 mg/kg
Description: as §1, §2

[2] = Body weight of model rats; type: in vivo, rat; conditions: 30 days treatment
Description: as §1

pancreatic islets = assay: Morphologic observation on islet of model rats (HE, immunofluorescence, TEM); type: in vivo, rat
Description: HE staining on paraffin section was performed as described in reports. In brief, paraffin section were rinsed with PBS, fixed with 4% paraformaldehyde (PFA) for 30 min and then washed by PBS. The pancreas tissue were stained with Hematoxylin-Eosin, afterwards, they were dehydrated in alcohols. Morphological changes of the pancreas tissue were observed under an optical microscope (Olympus, Japan) after mounted by neutral resins.
Pancreas sections (8 μm) were cut in a cryostat and collected on superfrost microscope slides. The slides were stored at −20 °C till analysis. Immunofluorescent staining was used for detection of insulin (β cells) (1:100, Anti-Insulin antibody, Abcam), glucagon (α cells) (1:200, Anti-glucagon, Abcam). Briefly, the slides were blocked in 5% normal goat serum for 1 h in a humidified chamber. Slides were exposed to primary antibodies at a dilution of […] in antibody diluting solution at 4 °C overnight, washed in PBS, and exposed to appropriate secondary antibodies linked to the fluorescent probes (Goat Anti-Guinea pig IgG/FITC and Alexa Fluor 594-conjugated Goat Anti-Rabbit IgG) (Bioss and Proteintech, China) in antibody diluting solution for 1 h and DAPI (Beyotime, China) for 5 min in the dark. After washed by PBS, slides were mounted with a glycerol mounting medium. Images were collected using a fluorescent microscope (Nikon, Japan).
For transmission electron microscopy, about 1 mm^3 tissue specimens were obtained from the same pancreas region of the control and experimental groups of rats, and fixed overnight in 2% glutaraldehyde (pH7.3) in 0.1 M phosphate buffer saline at 4 °C. Images of pancreatic islets were captured from random tissue sections using a transmission electron microscope.

INS-1 cells = assay: Proliferation of INS-1 cells (CCK-8); type: cell-based, rat; conditions: 24 h, CCK-8, vs DMSO
Description: The rat insulinoma cell line INS-1 (832/13) was obtained from the Department of endocrinology at 1st affiliated hospital of Chongqing medical university. Cells were cultured in RPMI 1640 (Gibco, USA) (11 mmol/l glucose, 100 units/ml penicillin, […] streptomycin, 10 mmol/l HEPES pH 7.4) supplemented with 10% FBS (Gibco, USA), 2 mmol/l L-glutamine, 1 mmol/l pyruvate, and 50 μmol/l β-mercaptoethanol. […] 10 μl of CCK-8 was then added and incubated at 37 °C and 5% CO2 for 1.5 h and […] (OD) was read at 460 nm with microplate reader. The OD value represents the proliferation activity.

NCI-H716 cells = assay: GLP-1 secretion in NCI-H716 cells; type: cell-based, human; conditions: 10, 30, 100 μM, 2 h, compared with solvent group
Description: Human enteroendocrine NCI-H716 cells were maintained in suspension culture as described by the American Type Culture Collection guideline (ATCC). Two days before the experiments, cells were seeded into 12-well culture plates coated with Matrigel at 1 × 10^6 cells per well. Cells were incubated in RPMI 1640 containing 10% FBS at 37 °C for 48 h. […] After incubated for 2 h, GLP-1 concentrations from the supernatants were measured by ELISA kits (YuanYe, China).

Structure (SMILES): N#C[C@@H]1CCCN1C(=O)CNC12CC3CC(CC(O)(C3)C1)C2 [vildagliptin, reference compound]
- percentage reduction of blood glucose levels in OGTT ([1]; 1st day): 8.9%
- percentage reduction of blood glucose levels in OGTT ([1]; 19th day): 10.1%
- percentage reduction of blood glucose levels in OGTT ([1]; 29th day): 17.8%
- insulin levels in plasma (insulin): significantly increased
- reduction of the level of HbA1c (HbA1c): 2.0%
- reduction of LDL-C level (TG, LDL-C): 15.97%
- reduction of TG level (TG, LDL-C): 38.79%
- body weights vs model group [2]: no significant difference
- distribution of β cells (insulin/glucagon double staining) (pancreatic islets; 30 days treatment): obviously improved
- mass of α-cells (insulin/glucagon double staining) (pancreatic islets; 30 days treatment): mildly reduced
- morphology of pancreatic islets (HE staining) (pancreatic islets; 30 days treatment): prevent islet from damage
- secretory granules in β cells (transmission electron microscopy) (pancreatic islets; compared with the model): obviously increased
- cells viabilities (proliferation) of INS-1 cells (INS-1 cells): increased
- GLP-1 levels (secretion) (NCI-H716 cells): increased slightly without significance
